From patent US20070259056A1, “Anti-Tumour Terpene Compounds” (COMPTON DEVELOPMENTS LTD., priority 2003, published 2007)
Read-outs that look alike come from different tables or passages of the source.

What was measured:
[1] = system: S180 murine sarcoma cells; test: MTT assay, cytotoxicity on S180 cells; conditions: S180 and human tumour cells in culture
Method: Two transformed cell lines were chosen for MTT analysis, S180 murine sarcoma cells and HT1080 human fibrosarcoma cells. Cells were seeded in 96-well microliter plates at a density of 2×10^5 cells/ml and incubated at 37° C. and 5% CO2 for 24 hours prior to treatment. 200 ul PBS was added to the wells on the outer edges of the plate to reduce evaporation loss from the wells containing cells.
Serial dilutions were carried out to enable a range of progressively more dilute concentrations of extract to be tested. The same procedure was followed to make solutions of staurosporine and ethanol of the same concentrations. Staurosporine, an agent with well-established cytotoxic properties, was incorporated into the study to provide a benchmark to compare the cytotoxicity of the extracts against.
Careful mixing with a pipette ensured thorough dissolution. […] This was done immediately after addition of DMSO.
The method was also employed to test the impact of identified components of the Haddi extracts. Thus, trans-β-Ocimene and γ-Bisabolene both major components of the Haddi extract were tested using the MTT assay to estimate their impact on tumour cell cytotoxicity and viability, see FIGS. 7 to 10.

mammals = conditions: cited from earlier work
[2] = system: mixed cultures containing fibroblast cells and tumour cells; test: Mixed tissue culture of fibroblast cells and tumour cells; assay type: cell-based; conditions: 12 hrs
Method: In addition when mixed cultures containing fibroblast cells and tumour cells are treated, the normal fibroblasts appear to survive while the tumour cells go into apoptosis.
The results of such an experiment are shown in FIG. 14, wherein a mixed tissue culture has been treated for 12 hrs with 5 uM Bisabolene. […] In FIG. 15 a mixed tissue culture has been treated for 12 hrs with 100 uM Ocimene.

[3] = system: A375 cells (a human skin melanoma cell line); test: MTT assay, cytotoxicity on A375 cells; assay type: cell-based; conditions: for % Cytoxicity: A375 cells; for concentration inducing / required to initiate cell death: A375 tumour cells
[4] = system: HT1080 human fibrosarcoma cells; test: Annexin V bioassay of apoptosis in HT1080 cells; assay type: cell-based; conditions: 5 uM, 12 hours
Description: The Annexin V bioassay is used to distinguish between cells dying via the apoptotic route and cells dying by necrosis. Knowing how ocimene and bisabolene cause cell death is crucial. […] This is because necrotic cells burst and release their content into the surroundings, thus causing an inflammatory response that is potentially harmful to neighbouring, non-target cells.
The Annexin V bioassay utilises an early change in the plasma membrane of apoptotic cells during which phosphatidylserine (PS), a membrane bound phospholipid, is translocated from the inner surface of the membrane bi-layer to the outer surface—thus bringing the PS into contact with the environment. This change occurs before membrane bleeding and far earlier than DNA fragmentation thus making it an ideal marker for early apoptotic cells. Annexin V is a Ca^2+-dependent phospholipid binding protein with a high affinity for PS. In this study the Annexin V was coupled to a fluorescent marker called FITC, to generate an Annexin V-FITC conjugate. FITC fluoresces with an intense green/yellow colour when viewed via fluorescent microscopy. Thus, early apoptotic cells will bind Annexin V-FITC on their plasma membranes and fluoresce- green/yellow, whereas late apoptotic cells will fluoresce green/yellow in the cytoplasm as well as at the membrane.
To identify necrotic cells another dying agent, propidium iodide (PI) is used. […]

[5] = system: MM6 cells (monocyte leukaemic cell line); conditions: for % Cytoxicity: MM6 cells; for concentration as low as which high cell death is induced: MM6 tumour cells
Description: The MTT assay is a powerful, quantitative and highly reliable colourimetric assay that measures the viability of a cell population. […] The amount of formazan produced is directly proportional to the number of viable cells in the test population. The formazan product formed can be dissolved in dimethyl sulfoxide (DMSO), which enables quantification of the product to be obtained via spectrophotometry. A population containing largely viable cells will produce high levels of the formazan product and will therefore give a deep purple solution upon dissolution with DMSO, while a cell population that has mostly dead cells will produce a colourless solution. The amount of light absorbed (at a wavelength of 575 nm) can be converted to % cytotoxicity by using the following calculation: [control absorption−test absorption]X 100=% cytotoxicity control absorption Experimental Protocol
100 ul of each concentration of each extract/control were added to 3 separate wells in a labeled microtitre plate. In the untreated control wells 100 ul of medium was added—all wells having a total final volume of 200 ul. 3 identical replicates of this were carried out for testing after 24, 48 and 72 hours. All plates were incubated at 37° C. and 5% CO2 until reading.
After the required length of time (i.e. 24, 48 or 72 hours) 20 ul MTT solution (5 mg/ml) was added to each well (excluding wells containing only PBS). Plates were then returned to the incubator (under the same conditions) for a further 4 hours. MTT is photosensitive so all plates were covered in foil to minimise exposure to light. After 4 hours all medium from the wells was pipetted out (care was taken to avoid disturbing the formazan crystals) and 200 ul DMSO was added to each well. Careful mixing with a pipette ensured thorough dissolution. All plates were then read on a spectrophotometer for absorption of light at 575 nm. This was done immediately after addition of DMSO.

Compound: C=C/C(C)=C/CC=C(C)C [trans-β-Ocimene, trans-β-ocimene]
- tumour cell death ([1]; concentrations above 200 mM): ~100%
- toxicity to mammals (mammals): non toxic to mammals
- survival of fibrocytes versus tumour cells in mixed culture ([2]; 100 uM): fibrocytes spread out and survive whilst tumour cells round off to form apoptotic bodies
- % Cytoxicity ([3]; 46 μM, 24 hours): 7%
- % Cytoxicity ([3]; 46 μM, 48 hours): −2%
- % Cytoxicity ([3]; 46 μM, 72 hours): −33%
- % Cytoxicity ([3]; 92 μM, 24 hours): −11%
- % Cytoxicity ([3]; 92 μM, 48 hours): −25%
- % Cytoxicity ([3]; 92 μM, 72 hours): −31%
- % Cytoxicity ([3]; 184 μM, 24 hours): 7%
- % Cytoxicity ([3]; 184 μM, 48 hours): 8%
- % Cytoxicity ([3]; 184 μM, 72 hours): −10%
- % Cytoxicity ([3]; 368 μM, 24 hours): 29%
- % Cytoxicity ([3]; 368 μM, 48 hours): 35%
- % Cytoxicity ([3]; 368 μM, 72 hours): 31%

Compound: CC(C)=CCC/C(C)=C1/CC=C(C)CC1 [γ-Bisabolene, γ-bisabolene]
- concentration at which potent [1]: around 50 mM
- induction of apoptotic cell death (Annexin V) [4]: induction of apoptotic cell death
- % Cytoxicity ([5]; 0.13 μM, 24 hours): 3%
- % Cytoxicity ([5]; 0.13 μM, 48 hours): −37%
- % Cytoxicity ([5]; 0.13 μM, 72 hours): 13%
- % Cytoxicity ([5]; 0.25 μM, 24 hours): 49%
- % Cytoxicity ([5]; 0.25 μM, 48 hours): 68%
- % Cytoxicity ([5]; 0.25 μM, 72 hours): 80%
- % Cytoxicity ([5]; 2.5 μM, 24 hours): 51%
- % Cytoxicity ([5]; 2.5 μM, 48 hours): 70%
- % Cytoxicity ([5]; 2.5 μM, 72 hours): 78%
- % Cytoxicity ([5]; 10 μM, 24 hours): 45%
- % Cytoxicity ([5]; 10 μM, 48 hours): 67%
- % Cytoxicity ([5]; 10 μM, 72 hours): 78%
- concentration as low as which high cell death is induced [5]: 0.25 µM
- survival of fibrocytes versus tumour cells in mixed culture ([2]; 5 uM): fibrocytes survive whilst tumour cells round off as apoptotic bodies
- % Cytoxicity ([3]; 0.13 μM, 24 hours): 15%
- % Cytoxicity ([3]; 0.13 μM, 48 hours): 5%
- % Cytoxicity ([3]; 0.13 μM, 72 hours): 13%
- % Cytoxicity ([3]; 0.25 μM, 24 hours): 10%
- % Cytoxicity ([3]; 0.25 μM, 48 hours): 7%
- % Cytoxicity ([3]; 0.25 μM, 72 hours): 50%
- % Cytoxicity ([3]; 2.5 μM, 24 hours): 15%
- % Cytoxicity ([3]; 2.5 μM, 48 hours): 55%
- % Cytoxicity ([3]; 2.5 μM, 72 hours): 71%
- % Cytoxicity ([3]; 10 μM, 24 hours): 23%
- % Cytoxicity ([3]; 10 μM, 48 hours): 64%
- % Cytoxicity ([3]; 10 μM, 72 hours): 77%
- concentration inducing / required to initiate cell death [3]: 0.25 µM

Compound: CC(C)=CCC[C@](C)(O)C1CC=C(C)CC1 (stereo partly drawn) [α-Bisabolol, α-bisabolol]
- % Cytoxicity ([5]; 0.13 μM, 24 hours): 48%
- % Cytoxicity ([5]; 0.13 μM, 72 hours): 53%
- % Cytoxicity ([5]; 0.25 μM, 24 hours): 48%
- % Cytoxicity ([5]; 0.25 μM, 72 hours): 54%
- % Cytoxicity ([5]; 2.5 μM, 24 hours): 46%
- % Cytoxicity ([5]; 2.5 μM, 72 hours): 51%
- % Cytoxicity ([5]; 10 μM, 24 hours): 33%
- % Cytoxicity ([5]; 10 μM, 72 hours): 49%
- concentration as low as which high cell death is induced [5]: 0.13 µM
- % Cytoxicity ([3]; 28 μM, 24 hours): −2%
- % Cytoxicity ([3]; 28 μM, 72 hours): 1%
- % Cytoxicity ([3]; 56 μM, 24 hours): −27%
- % Cytoxicity ([3]; 56 μM, 72 hours): 10%
- % Cytoxicity ([3]; 112 μM, 24 hours): 10%
- % Cytoxicity ([3]; 112 μM, 72 hours): 26%
- % Cytoxicity ([3]; 225 μM, 24 hours): 31%
- % Cytoxicity ([3]; 225 μM, 72 hours): 41%
- concentration inducing / required to initiate cell death [3]: 225 µM
